From patent publication US10988445B2 (AstraZeneca AB, priority 2015, dated 2021)

Test system: human TH17 cells
Assay: Inhibition of IL-17 release from human TH17 cells
Assay type: cell-based
Conditions: isolated human TH17 cells, 4 days culture, IL-17A by HTRF; for IC50: Homo sapiens, 96 h, read-out: pIC50 IL-17 release (converted)
Text: Inhibition of IL-17 Release from Human TH17 Cells (IL-17 Release)
This test is designed to screen compounds for their inhibitory effect on the release of IL-17 from isolated and cultured human TH17 cells.
Peripheral blood mononuclear cells (PBMC) were isolated from heparin treated human whole blood fromhealthy donors by density gradient centrifugation. TH17 cells (CD4+CXCR3-CCR6+) were enriched using a human TH17 Cell Enrichment Kit (Stemcell Technologies) according to the manufacturer's protocol. […] On day 4 supernatants were collected and IL-17A was measured using a Human IL-17 HTRF Assay kit (Cisbio Bioassays) according to the manufacturer's protocol. […] Results

Row | Structure (SMILES) | IC50 [nM] | further results
1 | CC1(C(=O)N2Cc3cc(S(C)(=O)=O)ccc3C2C(=O)Nc2ccc(C(O)(C(F)(F)F)C(F)(F)F)cc2)CCO1 (racemic) [Example 445] | 25.1 | –
2 | CO[C@H](C)C(=O)N1Cc2cc(S(C)(=O)=O)ccc2C1C(=O)Nc1ccc(C(O)(C(F)(F)F)C(F)(F)F)cc1 (mixture of isomers) [Example 449, N-[4-(1,1,1,3,3,3-Hexafluoro-2-hydroxypropan-2-yl)phenyl]-2-[(2R)-2-methoxypropanoyl]-5-(methylsulfonyl)-2,3-dihydro-1H-isoindole-1-carboxamide] | 79.4 | –
3 | CC[C@@H](O)C(=O)N1Cc2cc(S(=O)(=O)NC)ccc2C1C(=O)Nc1ccc(C(O)(C(F)(F)F)C(F)(F)F)cc1 (single isomer, unassigned) [Example 303, isomer 1] | – | pIC50 IL-17 release (listed as 303, isomer 1): 6.7
4 | CC[C@@H](O)C(=O)N1Cc2cc(S(=O)(=O)NC)ccc2C1C(=O)Nc1ccc(C(O)(C(F)(F)F)C(F)(F)F)cc1 (single isomer, unassigned) [Example 303, isomer 2] | – | pIC50 IL-17 release (listed as 303, isomer 2): 7.5
5 | CC[C@H](O)C(=O)N1Cc2cc(S(=O)(=O)NC)ccc2C1C(=O)Nc1ccc(C(O)(C(F)(F)F)C(F)(F)F)cc1 (single isomer, unassigned) [Example 307, isomer 1, (R) or (S)N-[4-(1,1,1,3,3,3-Hexafluoro-2-hydroxypropan-2-yl)phenyl]-2-[(2S)-2-hydroxybutanoyl]-5-(methylsulfamoyl)-2,3-dihydro-1H-isoindole-1-carboxamide] | – | pIC50 IL-17 release (listed as 307, isomer 1): 7.5
6 | CC[C@H](O)C(=O)N1Cc2cc(S(=O)(=O)NC)ccc2C1C(=O)Nc1ccc(C(O)(C(F)(F)F)C(F)(F)F)cc1 (single isomer, unassigned) [Example 307, isomer 2, (R) or (S)N-[4-(1,1,1,3,3,3-Hexafluoro-2-hydroxypropan-2-yl)phenyl]-2-[(2S)-2-hydroxybutanoyl]-5-(methylsulfamoyl)-2,3-dihydro-1H-isoindole-1-carboxamide] | – | pIC50 IL-17 release (listed as 307, isomer 2): 6.5
7 | CC[C@@H](O)C(=O)N1Cc2cc(S(C)(=O)=O)ccc2C1C(=O)Nc1ccc(C(O)(C(F)(F)F)C(F)(F)F)cc1 (single isomer, unassigned) [Example 409, isomer 1] | 63.1 | –
8 | CC(C)[C@@H](O)C(=O)N1Cc2cc(S(C)(=O)=O)ccc2C1C(=O)Nc1ccc(C(O)(C(F)(F)F)C(F)(F)F)cc1 (single isomer, unassigned) [Example 422] | 39.8 | –
9 | CC(C)[C@H](O)C(=O)N1Cc2cc(S(C)(=O)=O)ccc2C1C(=O)Nc1ccc(C(O)(C(F)(F)F)C(F)(F)F)cc1 (single isomer, unassigned) [Example 423] | 79.4 | –
10 | CC1(C(=O)N2Cc3cc(S(C)(=O)=O)ccc3[C@@H]2C(=O)Nc2ccc(C(O)(C(F)(F)F)C(F)(F)F)cc2)CCO1 (single isomer, unassigned) [Example 452, isomer 1] | – | pIC50 IL-17 release (listed as 452, isomer 1): 7.7
11 | CC1(C(=O)N2Cc3cc(S(C)(=O)=O)ccc3[C@@H]2C(=O)Nc2ccc(C(O)(C(F)(F)F)C(F)(F)F)cc2)CCO1 (single isomer, unassigned) [Example 452, isomer 2] | – | pIC50 IL-17 release (listed as 452, isomer 2): 7.3
12 | CCS(=O)(=O)c1ccc2c(c1)CNC2C(=O)Nc1ccc(C(O)(C(F)(F)F)C(F)(F)F)cc1 (stereo not shown) [Example 100, 5-(Ethylsulfonyl)-N-[4-(1,1,1,3,3,3-hexafluoro-2-hydroxypropan-2-yl)phenyl]-2,3-dihydro-1H-isoindole-1-carboxamide] | 39.8 | –
13 | CCS(=O)(=O)c1ccc2c(c1)CN(C(=O)C(F)(F)C1CC1)C2C(=O)Nc1ccc(C(O)(C(F)(F)F)C(F)(F)F)cc1 (stereo not shown) [Example 104, 2-[Cyclopropyl(difluoro)acetyl]-5-(ethylsulfonyl)-N-[4-(1,1,1,3,3,3-hexafluoro-2-hydroxypropan-2-yl)phenyl]-2,3-dihydro-1H-isoindole-1-carboxamide] | 20 | –
